Experiment [1] has as its target T1, RNF4 (Homo sapiens, UniProt P78317).
T1 sequence (P78317 1-190): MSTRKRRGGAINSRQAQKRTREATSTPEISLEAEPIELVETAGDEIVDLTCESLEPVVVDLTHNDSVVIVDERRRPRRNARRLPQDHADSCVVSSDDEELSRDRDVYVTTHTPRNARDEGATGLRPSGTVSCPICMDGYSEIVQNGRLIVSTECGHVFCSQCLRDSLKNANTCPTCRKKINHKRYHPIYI
Nature of the experiment: LC-MS/MS of covalent adduct on purified RNF4. Format: binding.

Experiment [2] concerns the target T1, RNF4. Nature of the experiment: competitive gel-based ABPP against IA-rhodamine labeling of pure RNF4. Format: binding.

In general, IC50 refers to the point on the concentration scale where inhibition reaches its midpoint. Low values mean greater potency, high ones weaker potency. For the compound TRH 1–23 [TRH 1-23], the IC50 entry on RNF4 [1] is given as “double digit micromolar”. `Cc1sc2c(c1C)C(c1ccc(Cl)cc1)=N[C@@H](CC(=O)NCCCCOc1ccc(Oc3ccc(N(Cc4ccccc4)C(=O)CCl)cc3)cc1)c1nnc(C)n1-2` [CCW 28-3, CCW 28–3] gave a 50% inhibitory concentration (IC50) on RNF4 [2] of 540 nM.

The record behind these values is publication PMC7422721 (ACS chemical biology, 2019).
